Consider nine compounds from patent US7144920B2, “Polyamine analogs that activate antizyme frameshifting” (MediQuest Therapeutics, Inc., priority 2002, dated 2006).

The target in one test is ODC. As to conditions: read-out: Ki for ODC inhibition; cited from earlier work.
The subject of test [1] is antizyme frameshifting (inducible 0 to +1 AZ1 construct) in HEK-293 cells. The test can be described thus: dual luciferase reporter assay for antizyme frameshifting. The test is classed as cell-based. As to conditions: for frameshift-rescue factor (FRF): % RF multiplied by inverse of rescue coefficient, HEK-293; for frameshift-rescue factor (FRF) / induction of antizyme frameshifting, comparison in words: 25 μM; for EC50: HEK-293 cells grown in 2.5 mM DFMO, 50% of maximum percent frameshifting (plateau, FIG. 3), read-out: EC50 for induction of frameshifting; for induction of antizyme frameshifting, comparison in words: HEK-293 (FIG. 1, FIG. 2). The protocol:
Frameshifting can be detected using a dual luciferase reporter system that measures the efficiency of antizyme translational frameshifting (Grentzmann, G. et. al., RNA 4:479–486 (1998); Howard, M. et. al., Genes to Cells 6:931–941 (2001)). Frameshifting efficiency is determined by comparing the ratio of firefly luciferase to renilla luciferase activity in cells transfected in parallel using a control vector containing a constitutive +1 frameshift (AZ-IF) that measures the in-frame translation efficiency and a vector containing the inducible 0 to +1 frameshift (AZ1) construct. In these constructs, the renilla luciferase gene is upstream of the firefly luciferase gene which are separated by a short cloning sequence containing the portions of antizyme 1 and 2 known to contain the mRNA signals for polyamine stimulated frameshifting. Using a 96-well format, this assay system gives a quantitative measure of the efficiency of the polyamines, polyamine analogs and other compounds to induce frameshifting in a cell-based bioassay. Cells must be pretreated with α-difluoromethylornithine (DFMO), an irreversible inhibitor of ODC, prior to screening to decrease the basal antizyme frameshifting levels and increase the sensitivity to polyamine or compound-mediated stimulation of antizyme frameshifting.
FIG. 1 is a tabular representation of a large number of polyamines A-S (25 μM) that were tested for their ability to induce antizyme frameshifting using the dual luciferase reporter assay. The percent relative frameshifting value (% RF) gives a comparison of the ability of a compound to induce frameshifting compared to 25 μM spermidine. The % RF was calculated as follows. The background percent frameshifting activity determined from the 2.5 mM DFMO negative control was subtracted from the percent frameshifting activity for all compounds including the spermidine control. The background corrected frameshifting activity of each compound was then divided by the background corrected frameshifting activity induced by 25 μM spermidine and multiplied by 100. The compounds were also evaluated for their ability to rescue cells from DFMO-induced growth inhibition by determining their rescue coefficient. The rescue coefficient represents the ratio of the cell growth, as measured by O.D., in the presence of the test compound with 2.5 mM DFMO to the growth in the presence of 2.5 mM DFMO alone. The frameshift-rescue factor (FRF) is a useful factor to compare the effectiveness of the various antizyme frameshifters by taking into account their potency for inducing frameshifting and ability to rescue cells from DFMO-induced growth inhibition. The FRF was calculated by multipling the % RF value by the inverse of the rescue coefficient.
Values represent percent frameshifting following transient transfection of an AZ1-IF control and the inducible 0 to +1 AZ1 plasmid construct into HEK-293 cells grown in the presence of 2.5 mM DFMO. The compounds were added to the cells after transfection and incubated overnight before assaying the next day. Each value represents triplicate measurements.
A series of compounds are screened for their ability to induce frameshifting using the dual luciferase reporter assay. HEK-293 cells are plated in white sided, clear-bottomed 96-well assay plates at 15,000 cells per well in 100 μL of medium (DMEM supplemented with 10% fetal bovine serum (Gibco), 1% penicillin, streptomycin and L-glutamine) containing 2.5 mM DFMO. The cells are incubated for 2-days at 37° C. in an atmosphere of 5% CO2. The medium is removed and the cells are then transfected with lipofectamine reagent (LifeTechnologies) using serum free DMEM. All cells are transfected overnight with 100 ng of the appropriate plasmid DNA and 0.3 μL lipofectamine in 50 μL of serum free DMEM containing 2.5 mM DFMO. The next day, 40 μL of medium is added per well containing 3.1 mM DFMO, 2.5 mM aminoguanidine and 25% FBS. […]

Test [2] deals with HEK-293 cells. The test is described as follows: rescue from DFMO-induced growth inhibition. The format is cell-based. Conditions: 25 μM compound, 2.5 mM DFMO, 6 days.
Method: FIG. 5 gives a comparison of the ability of antizyme frameshifters (25 μM) to rescue cells from 2.5 mM DFMO-induced growth inhibition compared to 25 μM spermidine (SPD) in a 6-day assay in HEK-293 cells. The rescue coefficient represents the ratio of cell growth, as measured by O.D., of the test compound with 2.5 mM DFMO versus 2.5 mM DFMO alone.
HEK-293 cells are plated in 96-well assay plates at 1,000 cells per well in 100 μL of medium (DMEM supplemented with 10% fetal bovine serum (Gibco), 1% penicillin, streptomycin and L-glutamine). The cells are incubated overnight at 37° C. in an atmosphere of 5% CO2. Compounds are added the next day to a final concentration of 25 μM along with 1 mM aminoguanidine (inhibits serum amine oxidase) and 2.5 mM DFMO in a final volume of 200 μL medium. The positive control contained 25 μM spermidine. The cells are allowed to incubate for 6 days before cell growth is measured by MTS/PMS dye assay (Cell Titer 96 Aqueous Non-Radioactive Cell Proliferation Assay, Promega). The rescue coefficients in FIG. 1 and FIG. 5 are expressed as the ratio of the O.D. ((compound+2.5 mM DFMO)/O.D. (2.5 mM DFMO alone)). Therefore, DFMO alone has a value of one. […] If the value is less than one, then the compound is growth inhibitory. If the value is 0, the compound is cytotoxic.
For test [3], the system named is HEK-293 cells. The test can be described thus: cells. The test is classed as cell-based. As to conditions: for IC50: read-out: IC50 growth inhibition. The protocol:
Cell number was determined by MTS/PMS assay from triplicate wells.
(§1) Cells are plated in 96-well plates such that they would be in log growth for the duration of the assay. The day after plating, the polyamine analogs are added to the cells, and growth, if any, permitted to continue for six days in the presence of 1 mM AG and 1 μM SPD when appropriate. At the end of six days, cell growth is measured by MTS/PMS dye assay (Cell Titer 96 Aqueous Non-Radioactive Cell Proliferation Assay; Promega, Madison, Wis.). IC50 refers to the concentration of the polyamine analog that results in 50% of maximum cell growth inhibition.

The next test has as its system MDA-MB-231 cells. The test is described as follows: growth inhibition, MDA-MB-231. The test is classed as cell-based. Conditions: Homo sapiens; MDA-MB-231 cells (data not shown). Here is the method: as §1
The subject of a further test is prostate PC-3 cells. The test can be described thus: growth inhibition, PC-3. The test is classed as cell-based. As to conditions: Homo sapiens; prostate PC-3 cells (data not shown). Here is the method:
as §1

The test system of a further test is antizyme frameshifting. As to conditions: cited from earlier work.
Test [4] has as its system mouse kidney proximal tubule (MCT) cell. As to conditions: MCT cells; cited from earlier work.
Test [5] relates to HEK-293 cells. The test can be described thus: depletion of intracellular polyamine levels (HPLC) and cell growth. The format is cell-based. The protocol:
FIG. 6 is a graph showing the effect of a 6-day incubation of compound A on HEK-293 cellular polyamine levels and cell growth. All flasks received 1 mM aminoguanidine. Cells were washed, counted, lysed in perchloric acid, dansylated and polyamine levels determined by HPLC. Each value represents the average of triplicate values with the error bars representing standard deviation.
FIG. 7 illustrates the effect of extracellular compound A on the intracellular concentration of compound A in HEK-293 cells as determined by HPLC. Cells were prepared as in FIG. 6. Peak area was normalized by dividing the peak area of the compound divided by the peak area of the internal standard, diaminoheptane. Values represent at least triplicate measurements with the error bars representing standard deviation.
Compound A is further evaluated to determine if it depletes intracellular polyamine levels in HEK-293 cells in a dose-dependent fashion (FIG. 6). HEK-293 cells are plated in 75 cm^2 flasks at 300,000 cells/mL to insure they would be in log growth for the duration of the experiment. After overnight incubation at 37° C. in an atmosphere of 5% CO2, compound A is added along with 1 mM aminoguanidine. The flasks are then incubated for 6 days at 37° C. in an atmosphere of 5% CO2. The cells are harvested by washing twice with ice-cold 1×PBS, trypsinized, counted, and lysed in 0.4 N perchloric acid. Diaminoheptane is used in all dansylation reactions as an internal standard. Peak area is normalized by dividing the peak area of the compound divided by the peak area of the internal standard. The HPLC method for the fluorometric detection of polyamines from the cell extracts is based on the procedure by Kabra (Kabra, P. M. et. al. J. Chromatogr. 380:19–32 (1986)).

Several values for one entry are separate records, joined by “and”; a condition that tells them apart may be missing. Equal entries are not always repeated. Where two headings read alike, the source gives them in different places.

In general, Ki refers to a dissociation constant, usually derived from enzyme kinetics or from competition with a known ligand. Turning to `NC/C=C/CN` [1,4-diamino-trans-2-butene], the inhibition constant (Ki) on ODC was 2 µM.

Consider `Nc1ccc(N)cc1` [1,4-phenylenediamine], for which the Ki on ODC was 46 µM.

`NCCCN(CCCN)Cc1ccc(CN(CCCN)CCCN)cc1` [Compound S]: the “percent relative frameshifting (% RF)” value in test [1] (25 μM compound, relative to 25 μM spermidine) was 100%. Also, in the test on HEK-293 cells [2], the “ability to rescue cells from DFMO-induced growth inhibition” value is “no ability to rescue”.

Usually IC50 stands for the concentration needed to halve the response being measured. In the case of `N=C(N)NCCCCN` [agmatine], in test [1], the “frameshift-rescue factor (FRF)” value came out at 17. Further, the IC50 in the test with HEK-293 cells [3] (Homo sapiens, HEK293, HEK-293 cells (data not shown)) was approximately 210 µM; with MDA-MB-231 cells, approximately 2 mM; in the test with prostate PC-3 cells it was approximately 5 mM. The “ability to rescue cells from DFMO-induced growth inhibition” value with HEK-293 cells [2] is on record as “somewhat better than either A or B in rescuing cells”. Besides, in the test with antizyme frameshifting, the “concentration of maximum frameshifting efficiency” value is given as 4 mM. Also, the “concentration of maximum growth inhibition” value in test [4] is reported as not above 1 mM.

Consider `NCCCCN` [putrescine, reference compound], for which the EC50 in test [1] (Homo sapiens, HEK293) was 950 nM.

As for `NCCCCNCCCN` [spermidine, reference compound], the EC50 in [1] (Homo sapiens, HEK293) turned out to be 560 nM.

On to `NCCCNCCCCNCCCN` [spermine, reference compound], for which, in [1] (Homo sapiens, HEK293), the EC50 came out at 680 nM.

Turning to “N-(3-aminopropyl)-xylylenediamin [Compound A]”, in test [1], the “induction of antizyme frameshifting, comparison in words” value was “more potent than agmatine”; the “frameshift-rescue factor (FRF)” value amounted to 120; the EC50 was approximately 120000 nM. In addition, the IC50 with HEK-293 cells [3] (HEK-293, 6 days, 1 mM aminoguanidine) is ~60 µM and 60 µM. The “compound A concentrations at which 1 μM spermidine rescued cells from growth inhibition” value in the test on HEK-293 cells [3] (HEK-293, 6 days, with 1 μM spermidine) was 3 to 100 µM. Moreover, the “ability to rescue cells from DFMO-induced growth inhibition” value in the test with HEK-293 cells [2] was “neither compound A nor B significantly rescue cells”. For the same compound, in the test with HEK-293 cells [5] (10 μM compound A, 6 days), the cell growth decrease came out at 32% and the “spermidine levels down by” value is listed as “about 90%”. In addition, the cell growth decrease in the test with HEK-293 cells [5] (30 μM compound A, 6 days) was 38.5%. For the same compound, in the test on HEK-293 cells [5] (100 μM compound A, 6 days), the intracellular spermidine level result was “non-detectable” and the “spermine levels reduced by” value is given as 50%. The “spermine levels, of normal” value in the test with HEK-293 cells [5] (compound A levels above 30 μM) is reported as “approximately 50%”. For the same compound, in the test on HEK-293 cells [5] (lowest concentration of compound A tested, 6 days), the intracellular putrescine level entry is reported as “non-detectable”.

Turning to “N-(4-amino-1-butane-N-(3-aminopropyl-)-xylylenediamine [Compound B]”, in test [1], the “induction of antizyme frameshifting, comparison in words” value is reported as “more potent than agmatine” and the “frameshift-rescue factor (FRF)” value was found to be 83. In the test on HEK-293 cells [2], the “ability to rescue cells from DFMO-induced growth inhibition” value was “neither compound A nor B significantly rescue cells”.
